US4694069A, “Kibdelosporangium aridum SK&F-AAD-609” (SmithKline Beckman Corporation, priority 1985, dated 1987)

Tested on: SK&F-AAD-609
Assay: Susceptibility of SK&F-AAD-609 to antibiotics (diffusion method, BBL susceptibility disks)
Format: cell-based, Kibdelosporangium aridum subsp. largum
Settings: 28° C., one week
Experimental: Susceptibility of SK&F-AAD-609 to antibiotics was examined by placing BBL susceptibility disks on nutrient agar plates seeded with SK&F-ADD-609 as an agar overlay. Plates were placed at 4° C. for one hour to permit diffusion of the anitbiotics and, subsequently, incubated at 28° C. Diameters of the zones of inhibition were measured after incubation for one week.
Susceptibility to Antibiotics. […] Chlortetracycline (5 μg) produced 17-18 mm zones of inhibition; tetracycline (5 μg) 9-12 mm zones; rifampin (5 μg) 10-12 mm zones; novobiocin (5 μg) 30-35 mm zones. All zones of inhibition contained at least a few resistant colonies.

Compound	Susceptibility (diffusion method) (disk 10 μg)	Zone of inhibition (diameter) (disk 5 μg)	other results
gentamicin	resistant	–	–
CC(=O)OCC1=C(C(=O)O)N2C(=O)[C@@H](NC(=O)Cc3cccs3)[C@H]2SC1 [cephalothin]	–	–	Susceptibility (diffusion method) (disk 30 μg): resistant
CN(C)[C@@H]1C(O)=C(C(N)=O)C(=O)[C@@]2(O)C(O)=C3C(=O)c4c(O)ccc(Cl)c4[C@@](C)(O)[C@H]3C[C@@H]12 [Chlortetracycline]	–	17-18 mm	–
O=C(N[C@H](CO)[C@H](O)c1ccc([N+](=O)[O-])cc1)C(Cl)Cl [chloramphenicol]	–	–	Susceptibility (diffusion method) (disk 5 μg): resistant
CC1(C)S[C@@H]2[C@H](NC(=O)Cc3ccccc3)C(=O)N2[C@H]1C(=O)O [penicillin]	–	–	Susceptibility (diffusion method) (disk 10 units): resistant
CO[C@H]1/C=C/O[C@@]2(C)Oc3c(C)c(O)c4c(O)c(c(/C=N/N5CCN(C)CC5)c(O)c4c3C2=O)NC(=O)/C(C)=C\C=C\[C@H](C)[C@H](O)[C@@H](C)[C@@H](O)[C@@H](C)[C@H](OC(C)=O)[C@@H]1C [rifampin]	–	10-12 mm	–
NC[C@H]1O[C@H](O[C@H]2[C@H](O)[C@@H](O[C@H]3O[C@H](CO)[C@@H](O)[C@H](N)[C@H]3O)[C@H](N)C[C@@H]2N)[C@H](N)C[C@@H]1O [tobramycin]	resistant	–	–
CO[C@@H]1[C@@H](OC(N)=O)[C@@H](O)[C@H](Oc2ccc3c(O)c(NC(=O)c4ccc(O)c(CC=C(C)C)c4)c(=O)oc3c2C)OC1(C)C [novobiocin]	–	30-35 mm	–
CCC[C@@H]1C[C@@H](C(=O)N[C@@H]([C@H]2O[C@H](SC)[C@H](O)[C@@H](O)[C@H]2O)[C@@H](C)O)N(C)C1 [lincomycin]	–	–	Susceptibility (diffusion method) (disk 2 μg): resistant
CN(C)[C@@H]1C(=O)C(C(N)=O)=C(O)[C@@]2(O)C(=O)C3=C(O)c4c(O)cccc4[C@@](C)(O)[C@H]3C[C@@H]12 [tetracycline]	–	9-12 mm	–
[H]/N=C(/N)N[C@H]1[C@H](O)[C@@H](O)[C@H](O[C@@H]2O[C@@H](C)[C@](O)(C=O)[C@H]2O[C@@H]2O[C@@H](CO)[C@H](O)[C@@H](O)[C@@H]2NC)[C@@H](N/C(N)=N\[H])[C@@H]1O [streptomycin]	resistant	–	–
CC1(C)S[C@@H]2[C@H](NC(=O)[C@H](N)c3ccccc3)C(=O)N2[C@H]1C(=O)O [ampicillin]	resistant	–	–
